Here are results for 18 compounds from article PMC3849818 (Journal of medicinal chemistry, 2013).

For series [1], the target named is T1, orexin 1 (OX1) receptor (Homo sapiens, UniProt O43613).
T1 sequence (O43613 1-425): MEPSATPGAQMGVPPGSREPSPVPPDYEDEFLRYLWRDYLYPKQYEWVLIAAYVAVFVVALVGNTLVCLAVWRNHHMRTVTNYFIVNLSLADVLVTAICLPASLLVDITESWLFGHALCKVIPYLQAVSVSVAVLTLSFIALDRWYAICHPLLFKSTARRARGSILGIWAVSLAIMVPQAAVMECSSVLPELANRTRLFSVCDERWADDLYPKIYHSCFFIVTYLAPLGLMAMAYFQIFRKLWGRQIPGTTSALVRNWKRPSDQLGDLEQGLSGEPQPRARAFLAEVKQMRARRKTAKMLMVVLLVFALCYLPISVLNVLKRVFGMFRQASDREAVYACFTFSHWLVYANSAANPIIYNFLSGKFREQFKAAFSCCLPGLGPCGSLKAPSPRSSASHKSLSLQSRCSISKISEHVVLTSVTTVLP
Kind of series: OX1 calcium mobilization functional assay. Format: cell-based. Particulars: for OX2/OX1: ratio of Ke values. For orientation: Calcium flux is commonly read through the fluorescence of an indicator in the cells.

For series [2], the target named is T2, OX2 receptor (Homo sapiens, UniProt O43614).
T2 sequence (O43614 1-444): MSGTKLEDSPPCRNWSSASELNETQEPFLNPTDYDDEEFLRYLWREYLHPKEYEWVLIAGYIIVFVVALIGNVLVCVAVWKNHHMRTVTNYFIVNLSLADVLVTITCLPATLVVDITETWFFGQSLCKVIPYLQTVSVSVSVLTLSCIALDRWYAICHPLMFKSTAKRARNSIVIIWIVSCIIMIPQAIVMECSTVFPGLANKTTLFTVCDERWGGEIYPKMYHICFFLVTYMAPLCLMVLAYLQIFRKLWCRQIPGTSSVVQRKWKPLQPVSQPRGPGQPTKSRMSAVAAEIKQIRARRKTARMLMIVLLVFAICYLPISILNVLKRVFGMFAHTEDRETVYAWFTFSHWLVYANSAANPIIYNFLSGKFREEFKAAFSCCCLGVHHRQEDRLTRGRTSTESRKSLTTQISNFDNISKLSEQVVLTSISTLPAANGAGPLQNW
The series is described as follows: OX2 calcium mobilization functional assay. Format: cell-based.

In series [3] the test system is rats. Kind of series: Conditioned place preference. Format: in vivo, Sprague-Dawley rats.
For series [4], the system named is rats. Kind of series: Drug discrimination assay. Type of series: in vivo. To be noted: 10 min pretreatment, data not shown.
For series [5], the system named is OX1. To be noted: read-out: IC50 OX1; cited from earlier work.
For series [6], the system named is OX2. Particulars: read-out: IC50 OX2; Actelion high throughput screening hit; cited from earlier work.
For series [7] the following is noted: 2-methylbenzoxazole undergoes ring opening under acidic conditions; cited from earlier work.

As to `COc1ccc(CC2c3cc(OC)c(OC)cc3CCN2CC(=O)N[C@@H](C)c2ccccc2)cc1OC` (stereo partly drawn) [Compound 49, 2-{1-[(3,4-dimethoxyphenyl)methyl]-6,7-dimethoxy-1,2,3,4-tetrahydroisoquinolin-2-yl}-N-[(1S)-1-phenylethyl]acetamide], in series [1] (at 10 μM), the “OX1 activity in words” value is “inactive”. The “OX2 activity in words” value in series [2] (at 10 μM) was “inactive”.

`CCCCCC(=O)Nc1ccc(CNC(=O)CN2CCc3cc(OC)c(OC)cc3C2Cc2ccc(OC)c(OC)c2)cc1` (stereo not shown) [Compound 58, N-{4-[(2-{1-[(3,4-dimethoxyphenyl)methyl]-6,7-dimethoxy-1,2,3,4-tetrahydroisoquinolin-2-yl}acetamido)methyl]phenyl}hexanamide]: the OX2/OX1 in series [1] is <0.4. Further, in series [2], the Kd was found to be 3.79 ± 0.67 µM.

With `COc1ccc(CC2c3cc(OCCCCOc4ccccc4)c(OC)cc3CCN2CC(=O)NCc2ccccc2)cc1OC` (stereo not shown) [Compound 24, N-benzyl-2-{1-[(3,4-dimethoxyphenyl)methyl]-6-methoxy-7-(4-phenoxybutoxy)-1,2,3,4-tetrahydroisoquinolin-2-yl}acetamide], in series [1], the OX2/OX1 was >230. For the same compound, in series [2], the Kd was > 10 µM.

On to `CCOc1cc2c(cc1OC)CCN(CC(=O)NCc1cccnc1)C2Cc1ccc(OC)c(OC)c1` (stereo not shown) [Compound 74, 2-{1-[(3,4-dimethoxyphenyl)methyl]-7-ethoxy-6-methoxy-1,2,3,4-tetrahydroisoquinolin-2-yl}-N-(pyridin-3-ylmethyl)acetamide], for which, in series [1], the OX2/OX1 is >637. In addition, in series [2], the Kd is > 10 µM.

On to `CCCOc1cc2c(cc1OC)CCN(CC(=O)NCc1cccnc1)C2Cc1ccc(OC)c(OC)c1` (stereo not shown) [Compound 70, 2-{1-[(3,4-dimethoxyphenyl)methyl]-6-methoxy-7-propoxy-1,2,3,4-tetrahydroisoquinolin-2-yl}-N-(pyridin-3-ylmethyl)acetamide], for which, in series [1], the OX2/OX1 is on record as >239. Moreover, the Kd in series [2] is > 10 µM.

In the case of `COc1ccc(CC2c3cc(OCC(F)(F)F)c(OC)cc3CCN2CC(=O)NCc2cccnc2)cc1OC` (stereo not shown) [Compound 72, 2-{1-[(3,4-dimethoxyphenyl)methyl]-6-methoxy-7-(2,2,2-trifluoroethoxy)-1,2,3,4-tetrahydroisoquinolin-2-yl}-N-(pyridin-3-ylmethyl)acetamide], the OX2/OX1 in series [1] is >1180. Also, in series [2], the Kd is > 10 µM. For the same compound, the “effect on development of place preference induced by cocaine” value in series [3] (20 mg/kg i.p. 10 min before cocaine 10 mg/kg, P < 0.05 vs cocaine) is “significantly attenuated”. For the same compound, the “CPP produced by compound alone” value in series [3] (20 mg/kg i.p., n=8-9) is on record as “did not produce CPP or place aversion”. For the same compound, the “behavioral activity in drug discrimination” value in series [4] was “behaviorally active”.

On to `COc1ccc(C[C@H]2c3cc(OC)c(OC)cc3CCN2[C@@H](C(=O)NC(C)C)c2ccccc2)cc1OC` [ACT-335827, reference compound], for which the IC50 in series [5] was 0.006 µM.

With `COc1ccc(CC2c3cc(OC)c(OC)cc3CCN2CC(=O)NCc2cccnc2)cc1OC` (stereo not shown) [Compound 54, 2-{1-[(3,4-dimethoxyphenyl)methyl]-6,7-dimethoxy-1,2,3,4-tetrahydroisoquinolin-2-yl}-N-(pyridin-3-ylmethyl)acetamide], the OX2/OX1 in series [1] is given as >65.8. In series [2], the Kd was > 10 µM.

With `CCOc1cc2c(cc1OC)CCN(CC(=O)NCc1ccccc1)C2Cc1ccc(OC)c(OC)c1` (stereo not shown) [Compound 12, N-benzyl-2-{1-[(3,4-dimethoxyphenyl)methyl]-7-ethoxy-6-methoxy-1,2,3,4-tetrahydroisoquinolin-2-yl}acetamide], the OX2/OX1 in series [1] is on record as >333. Further, the Kd in series [2] is > 10 µM.

On to `COc1ccc(CC2c3cc(OS(=O)(=O)C(F)(F)F)c(OC)cc3CCN2CC(=O)NCc2ccccc2)cc1OC` (stereo not shown) [Compound 27, 2-[(benzylcarbamoyl)methyl]-1-[(3,4-dimethoxyphenyl)methyl]-6-methoxy-1,2,3,4-tetrahydroisoquinolin-7-yl trifluoromethanesulfonate], for which, in series [1], the OX2/OX1 is >1000. Also, the Kd in series [2] was > 10 µM.

`CCCOc1cc2c(cc1OC)CCN(CC(=O)NCc1ccccn1)C2Cc1ccc(OC)c(OC)c1` (stereo not shown) [Compound 69, 2-{1-[(3,4-dimethoxyphenyl)methyl]-6-methoxy-7-propoxy-1,2,3,4-tetrahydroisoquinolin-2-yl}-N-(pyridin-2-ylmethyl)acetamide]: in series [1], the OX2/OX1 is >485. The Kd in series [2] was > 10 µM.

For the compound `COc1ccc(CC2c3cc(OCC(F)(F)F)c(OC)cc3CCN2CC(=O)NCc2ccccn2)cc1OC` (stereo not shown) [Compound 71, 2-{1-[(3,4-dimethoxyphenyl)methyl]-6-methoxy-7-(2,2,2-trifluoroethoxy)-1,2,3,4-tetrahydroisoquinolin-2-yl}-N-(pyridin-2-ylmethyl)acetamide], the OX2/OX1 in series [1] is >444. Besides, the Kd in series [2] is > 10 µM.

As for `CCCC(=O)Oc1cc2c(cc1OC)CCN(CC(=O)NCc1ccccc1)C2Cc1ccc(OC)c(OC)c1` (stereo not shown) [Compound 25, 2-[(benzylcarbamoyl)methyl]-1-[(3,4-dimethoxyphenyl)methyl]-6-methoxy-1,2,3,4-tetrahydroisoquinolin-7-yl butanoate], the OX2/OX1 in series [1] is given as >127. Moreover, in series [2], the Kd was > 10 µM.

Take `COc1ccc(CC2c3cc(OC)c(OC)cc3CCN2CC(=O)NCc2ccc(N(C)C)cc2)cc1OC` (stereo not shown) [Compound 56, 2-{1-[(3,4-dimethoxyphenyl)methyl]-6,7-dimethoxy-1,2,3,4-tetrahydroisoquinolin-2-yl}-N-{[4-(dimethylamino)phenyl]methyl}acetamide]: the OX2/OX1 in series [1] was >3.1. Also, the Kd in series [2] is > 10 µM.

Consider `COc1ccc(CC2c3cc(OCC(F)(F)F)c(OC)cc3CCN2CC(=O)NCc2ccccc2)cc1OC` (stereo not shown) [Compound 28, N-benzyl-2-{1-[(3,4-dimethoxyphenyl)methyl]-6-methoxy-7-(2,2,2-trifluoroethoxy)-1,2,3,4-tetrahydroisoquinolin-2-yl}acetamide], for which, in series [1], the “selectivity over the OX2 receptor” value was “over 1000 fold” and the OX2/OX1 is >1060. The Kd in series [2] was > 10 µM.

In the case of `COc1ccc(CC2c3cc(OC)c(OC)cc3CCN2CC(=O)NCc2ccccc2)cc1OC` (stereo not shown) [Compound 6, N-benzyl-2-{1-[(3,4-dimethoxyphenyl)methyl]-6,7-dimethoxy-1,2,3,4-tetrahydroisoquinolin-2-yl}acetamide], the dissociation constant (Kd) in series [2] was > 10 µM. For the same compound, the IC50 in series [6] was 8.1 µM.

On to `Cc1nc2ccc(NC(=O)Nc3ccnc4cccnc34)cc2o1.Cl` [Compound 1], for which the hydrolytic stability result in series [7] is “hydrolytic instability”.

On to `COC(=O)[C@H]1[C@@H](OC(=O)c2ccccc2)C[C@@H]2CC[C@H]1N2C` [Cocaine, reference compound], for which, in series [3] (10 mg/kg i.p., n=8-9), the “CPP produced by drug alone” value is “induced robust and significant CPP”.

As a reminder, the Kd is the concentration at which binding is half-saturated. One may read the IC50 as the midpoint of a concentration-inhibition curve.
